# Results published in US20250009817A1, “IMMUNOMODULATING COMPOSITION CONTAINING GASSERI” (THE CATHOLIC UNIVERSITY OF KOREA INDUSTRY-ACADEMIC …, priority 2023, published 2025).
# Key:
# [1] = system: IL-17 and IL-10; test: IL-17 and IL-10 in culture medium under allo response conditions, ELISA; type: cell-based, human; conditions: hPBMCs, 72 hours, FK506 1 nM, microbiomes 10 μg/ml each, vs Vehicle group
# Description: Specifically, the proliferation of allo response T cells was confirmed for FK506 alone (1 nM) and a combination of FK506 (1 nM) and L. gasseri (10 μg/ml); L. gasseri (10 μg/ml) and L. acidophilus (10 μg/ml); two microbiomes (each 10 μg/ml) and zinc (50 μM); or two microbiomes (each 10 μg/ml), zinc (50 μM), vitamin B9, and vitamin B12 (B9+B12 20 μM). Specifically, different human peripheral blood mononuclear cells (hPBMCs) were inoculated at a ratio of 1:1 (each concentration of 1×10^5 cells) on a 96 well plate coated with a concentration of anti CD3 0.5 μg/ml, treated with the combination in hPBMCs in which allo conditions were induced, and then cultured for 72 hours. Thereafter, 10 μl of CCK8 was treated to each well and reacted for 4 hours, and then the cell proliferation response was measured by absorbance at 450 nm. As a control group, a Vehicle group in which the active ingredient was replaced with a solvent was used.
# It was confirmed whether the combination of FK506 and the microbiome of the present invention regulated the expression of inflammation-related factors under allo response conditions. Specifically, a culture medium of each cell cultured in Example 7-1 was obtained, and the amounts of IL-17 as an inflammatory factor and IL-10 as an inflammation regulator in the culture medium were analyzed by ELISA.
# [2] = system: IL-17, IL-10, and IFN-γ; test: IL-17, IL-10 and IFN-γ in hPBMC under T cell stimulation conditions (anti-CD3), ELISA; type: cell-based, human; conditions: anti-CD3 2 μg/ml, 24 hours, FK506 1 nM, microbiomes 10 μg/ml each
# Description: (§1) It was confirmed whether the combination of FK506 and the microbiomes of the present inention regulated IL-17 and IL-10 in human peripheral blood mononuclear cells (hPBMCs) under T cell stimulation conditions. Specifically, PBMCs isolated from human peripheral blood were treated with anti-CD3 at a concentration of 2 μg/ml to activate T cells. Thereafter, the PBMCs were treated with FK506 alone (1 nM) and a combination of FK506 (1 nM) and L. gasseri (10 μg/ml); L. gasseri (10 μg/ml) and L. acidophilus (10 μg/ml); two microbiomes (each 10 μg/ml) and zinc (50 μM); or two microbiomes (each 10 μg/ml), zinc (50 μM), vitamin B9, and vitamin B12 (B9+B12 20 μM) and cultured for 24 hours. After completion of the culture, the cell culture medium was obtained, and the amounts of IL-17 and IL-10 in the culture medium were measured by ELISA.
# [3] = system: Breg and B10 cells, and CD19-positive and IL-10-positive cells; test: Breg, B10 and CD19-positive IL-10-positive cells in LPS-stimulated hPBMC, flow cytometry; type: cell-based, human; conditions: LPS 100 ng/ml, 24 hours
# Description: The immune cell regulatory effect of the combination of FK506 and the microbiomes of the present invention in hPBMC according to LPS was confirmed. Specifically, PBMCs isolated from human peripheral […] were treated with LPS at a concentration of 100 ng/ml to activate immune cells. Thereafter, FK506 alone; or a combination of FK506 and L. gasseri; L. gasseri and L. acidophilus; microbiomes and zinc; or microbiomes, zinc, vitamin B9, and vitamin B12 was treated and cultured for 24 hours. After completion of culture, cells in each group were obtained, and the expression of immune B cells Breg and B10 cells, and CD19-positive and IL-10-positive cells was confirmed using flow cytometry.
# [4] = system: CD4+T cells; test: Alloresponse (T cell proliferation) in allogeneic cell model, 3H thymidine incorporation; type: cell-based, mouse; conditions: allogeneic co-culture; FK506 0.3 mg/ml; microbiome 100 μg/ml in combination; FIG. 1
# Description: To confirm an effect of the combination of FK506 and a microbiome of the present invention on transplantation rejection, an allogeneic cell model was used. Specifically, in a 96 well plate, 2×10^5 CD4+T cells from a normal responder (Bclb/c) per well were mixed and co-cultured with 2×10^5 splenocytes from which T cells derived from an irradiated responder (syngenic) or donor (C57BL/6, stimulator, allogeneic) were removed. During co-culture, an allogeneic model was treated with five types of Lactobacillus bacteria, Lactobacillus acidophilus (LA), L. reuteri (LRe), L. rhamnosus (LRh), L. paracasei (LPC) or L. casei (LC) alone at 1, 10, and 100 μg/ml, or administered in combination with 0.3 mg/ml of FK506. As a control group, a syngenic transplantation group (Syn group) and an allogeneic transplantation group (Allo group) were used. Thereafter, in order to confirm alloresponses in mice of each group, T cell proliferation responses (alloresponses) were confirmed in the cultured cells using a 3H thymidine incorporation method.
# [5] = system: acute graft-versus-host disease (aGVHD); test: Disease activity, body weight and probability of survival in acute graft-versus-host disease animal model; type: in vivo, mouse; conditions: aGVHD mice, FK506 5 mg/kg, microbiome 400 mg/kg, oral once daily 4 weeks
# Description: Specifically, in order to fabricate an aGVHD model, a responder mouse Balb/c (H-2k/d) was subjected to total body irradiation (TBI) of 690 cGy, bone marrow stem cells and splenocytes were isolated from the femur and tibia of a donor mouse C57BL/6 (H-2k/b), and then 5×10^6 bone marrow (BM) stem cells and 5×10^6 splenocytes were transplanted into the responder mouse Balb/c (H-2k/d). Thereafter, after the occurrence of aGVHD, 5 mg/kg of FK506 and 400 mg/kg each of Lactobacillus rhamnosus (LR) or Lactobacillus paracasei (LP) were administered orally once daily for 4 weeks. Disease activity, body weight, and probability of survival of mice in each group were measured once a week to confirm whether the disease activity was suppressed (FIG. 5). As control groups, a syngenic (syn) group transplanted with syngenic cells; a vehicle group, in which aGVHD was induced and saline was injected; and groups administered with FK506, Lactobacillus rhamnosus, and Lactobacillus paracasei alone were used.
# [6] = system: Treg; test: Treg expression in hPBMC under T cell stimulation conditions, flow cytometry; type: cell-based, human; conditions: anti-CD3 2 μg/ml, 24 hours, FK506 1 nM, microbiomes 10 μg/ml each, zinc 50 μM, B9+B12 20 μM
# Description: as §1
# It was confirmed whether the combination of FK506 and the microbiomes of the present invention regulated the expression of Treg reduced by treatment with the immunosuppressant. Specifically, cells in each group of Example 8-1 were obtained, and expression of Treg was confirmed by flow cytometry.
compound,measurement,setting,value
"C=CC[C@@H]1/C=C(\C)C[C@H](C)C[C@H](OC)[C@H]2O[C@@](O)(C(=O)C(=O)N3CCCC[C@H]3C(=O)O[C@H](/C(C)=C/[C@@H]3CC[C@@H](O)[C@H](OC)C3)[C@H](C)[C@@H](O)CC1=O)[C@H](C)C[C@@H]2OC.O [FK506, Tacrolimus]",expression of IL-10 in the culture medium,[1],significantly decreased
same,amount of IFN-γ,[2]; vs Vehicle group,significantly decreased
same,amount of IL-10,"[2]; zinc 50 μM, B9+B12 20 μM",not expressed
same,expression of B10,[3],decreased
same,expression of Breg,[3]; vs Vehicle group,significantly decreased
same,T cell proliferation (alloresponse),[4],suppressed
same,probability of survival,[5]; at the end of the experiment,60%
same,body weight,[5]; compared to the vehicle group,increased
same,disease activity,[5]; compared to the vehicle group,decreased
same,expression of Treg,[6],significantly decreased
